From PubChem BioAssay AID2060884 (Molecular Pharmacology Branch, DTP, NCI, 2025) come the findings set out here.

Structures are written as SMILES. “And” between values parts separate entries of the source, which are not always exact repeats. Identical values can stand only once.

In the test the test system is NCI-H929 complex spheroids, viability % test/control. The test can be described thus: Anticancer human tumor NCI-H929 cell line growth inhibition [RAS].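 On all read-outs here: compound exposure lasted seven days before viability was read.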 The following applies: for viability, T/C: stronger effect = lower value. An excerpt:
RAS pathway inhibitors in Combinations in Complex Spheroids
A high-throughput screen of multi-cell type tumor spheroids was designed to identify active combinations of RAS pathway inhibitors and targeted small molecules. Complex spheroids include a stromal component modeled by human endothelial cells (HUVEC) and fibroblasts modeled by human mesenchymal stem cells (MSCs). The concentration ranges selected for each drug and investigational agent were based upon clinically achievable concentrations if the clinical Cmax of the agent was known.
Compounds. The drugs and investigational agents: abemaciclib (NSC768073), cobimetinib (NSC768068), divarasib (GDC6063, NSC841802), docetaxel (NSC628503), GDC-1971 (RLY-1971, NSC841576), gemcitabine (NSC613327), inavolisib (NSC800729), ipatasertib (NSC767898), KB-0742 (NSC834161), MRTX-1133 (NSC836407), osimertinib (NSC779217), RMC-4630 (NSC839698), RMC-6236 (NSC851965), RMC-6291 (NSC852671), Ro-3306 (NSC812927), sapanisertib (NSC764658), SN-38 (NSC673596), staurosporine (NSC755774), SY5609 (NSC837396), and tovorafenib (DAY101, NSC766906), were obtained from the National Cancer Institute (NCI) Developmental Therapeutics Program Chemical Repository. The FDA-approved anticancer drug set is available from the NCI Developmental Therapeutics Program. […] The stock solutions were prepared in dimethyl sulfoxide (DMSO, Sigma-Aldrich, St. Louis, MO, cat. D2650) at 800-fold the tested concentration and stored at -70 degrees C prior to their use. All drugs and investigational agents were tested over a range starting from a high concentration at or near the clinical Cmax and decreasing in half-log increments. If the clinical Cmax for an agent had not been determined, the highest concentration tested was 10 microM.
Cell Culture. All cells were maintained in an incubator at 37 degrees C and 5% CO2 with 95% humidity. The PDC lines were cultured according to standard operating procedures established by the NCI PDMR. All PDCs were thawed and cultured in Matrigel-coated flasks prepared with a working solution of 1X Ham's F-12 nutrient mix, without supplementation (Invitrogen, Waltham, MA, cat. 11765054), 100 U/mL penicillin-streptomycin (Invitrogen, cat. 15140122), and 2.5% Matrigel (Corning Inc., Corning, NY, cat. 354248) for the first three passages. The 362531-283-R-J2-PDC and 782815-120-R-J1-PDC lines were cultured in 6C/Colon 1B media, which includes advanced DMEM/F-12 (Thermo Fisher Scientific, cat. 12634028), 10 mM HEPES (Thermo Fisher Scientific, cat. 15630080), 1X GlutaMAX supplement (Thermo Fisher Scientific, cat. 35050061), 0.1 mg/mL primocin (InvivoGen, San Diego, CA, cat. ant-pm-2), 10% defined fetal bovine serum, heat inactivated (HyClone Laboratories Inc., Logan, UT, cat. SH30070.03HI), 50% L-WRN conditioned media (ATCC, cat. CRL-3276), 1.25 mM N-Acetyl-L-cysteine (Sigma-Aldrich, cat. A9165), 10 mM nicotinamide (Sigma-Aldrich, cat. N0636), 1X B-27 supplement (Thermo Fisher Scientific, cat. 17504044), 1X N-2 supplement (Thermo Fisher Scientific, cat. 17502048), 50 ng/mL human EGF (Thermo Fisher Scientific, cat. PHG0311), and 10 microM Y-27632 dihydrochloride (Tocris Bioscience, cat. 1254). The K12877-001-R-J1-PDC line was cultured in 6I media, which includes all 6C/Colon 1B media plus 10 ng/mL human FGF-10 (PeproTech, cat. 100-26), 1 ng/mL human FGF-2 (PeproTech, cat. 100-18B), 1 µM prostaglandin E2 (Tocris Bioscience, cat. 2296), […] hydrocortisone (Sigma-Aldrich, cat. H4001), and […] bovine insulin (Sigma-Aldrich, cat. I6634). The K86415-001-R-J1-PDC line was cultured in 6D media, which includes all 6C/Colon 1B media components minus the L-WRN conditioned media. The 485176-168-R4-J1-PDC was cultured in PANC media, which includes all 6C/Colon 1B media plus 100 ng/mL human FGF-10 (PeproTech, cat. 100-26), 500 nM SB-431542 (Selleckchem, cat. S1067), and 10 nM gastrin (Tocris Bioscience, cat. 3006). […]

The viability, T/C is the ratio of treated to control. As a reminder, the IC50 is the concentration at which inhibition is half-maximal. Consider `C#Cc1c(F)ccc2cc(O)cc(-c3ncc4c(N5CC6CCC(C5)N6)nc(OCC56CCCN5CC(F)C6)nc4c3F)c12` (configuration not stated), for which the viability, T/C was 102% [middle of 8 runs] (compound 0.0316 µM); 103% [middle of 8 runs] (compound 0.1 µM); 101% [middle of 8 runs] (compound 0.316 µM); 97% [middle of 8 runs] (compound 1 µM); 97.6% [middle of 8 runs] (compound 3.16 µM); 96.6% [middle of 8 runs] (compound 10 µM). In addition, the IC50 (compound alone, run of 09/09/2024) is over 10 µM.
As for `CC(=O)OC12COC1CC(O)C1(C)C(=O)C(O)C3=C(C)C(OC(=O)C(O)C(NC(=O)OC(C)(C)C)c4ccccc4)CC(O)(C(OC(=O)c4ccccc4)C21)C3(C)C` (configuration not stated), the viability, T/C was 1.05% [middle of 4 runs] (compound 0.0316 µM); 1.29% [middle of 4 runs] (compound 0.1 µM); 1.47% [middle of 4 runs] (compound 0.316 µM); 1.41% [middle of 4 runs] (compound 1 µM); 1.6% [middle of 4 runs] (compound 3.16 µM); 0.8% [middle of 4 runs] (compound 10 µM). Besides, for the setting “curve of compound”, the IC50 is under 0.0316 µM.
With `CC(C)NCC(C(=O)N1CCN(c2ncnc3c2C(C)CC3O)CC1)c1ccc(Cl)cc1` (configuration not stated), the viability, T/C was 106% [middle of 4 runs] (compound 0.0316 µM); 102% [middle of 4 runs] (compound 0.1 µM); 108% (2×) and 99.3% and 103% (compound 0.316 µM); 104% (2×) and 62.6% and 71.6% (compound 1 µM); 12.8% [middle of 4 runs] (compound 10 µM). For the same compound, the IC50 (curve of compound) is 3.45 µM [middle of 4 runs].
On to `CC(Nc1ccc2c(c1)OCCn1cc(N3C(=O)OCC3C(F)F)nc1-2)C(N)=O` (configuration not stated), for which the viability, T/C is, setting by setting: (compound 0.0316 µM) 106% [middle of 4 runs]; (compound 0.1 µM) 102% [middle of 4 runs]; (compound 0.316 µM) 107% (2×) and 97.8% and 109%; (compound 1 µM) 108% [middle of 4 runs]. For the same compound, the IC50 (curve of compound) was > 10 µM and 6.14 µM and 6.23 µM.
As to `CC1(C)CCC(Nc2ncc(C(F)(F)F)c(-c3c[nH]c4c(P(C)(C)=O)c(C#N)ccc34)n2)CN1` (configuration not stated), the viability, T/C runs as follows: (compound 0.00949 µM) 14.5% [middle of 4 runs]; (compound 0.03 µM) 8.74% [middle of 4 runs]; (compound 0.0949 µM) 9.57% [middle of 4 runs]; (compound 0.3 µM) 5.41% [middle of 4 runs].
Regarding `CC1(O)CCCC1n1c(=O)c(C(F)F)cc2cnc(NC3CCN(S(C)(=O)=O)CC3)nc21` (configuration not stated), the viability, T/C is 116% and 105% and 113% (2×) (compound 0.0316 µM); 4.47% [middle of 4 runs] (compound 0.316 µM); 9.4% [middle of 4 runs] (compound 1 µM); 2.17% [middle of 4 runs] (compound 3.16 µM); 0.2% and 0.16% and 0.08% (compound 10 µM). For the same compound, the IC50 (curve of compound) was 189 nM [middle of 4 runs].
As to `CCC(CC)c1cc(NC2CCC(N)C2)n2nccc2n1` (configuration not stated), the viability, T/C is, setting by setting: (compound 0.0316 µM) 101% [middle of 4 runs]; (compound 0.1 µM) 98% [middle of 4 runs]; (compound 0.316 µM) 99.4% [middle of 4 runs]; (compound 3.16 µM) 1.51% [middle of 4 runs]; (compound 10 µM) 0.97% [middle of 4 runs]. The IC50 (curve of compound) was 1.74 µM [middle of 4 runs].
`C[C@@H](NC(=O)c1ncnc(N)c1Cl)c1ncc(C(=O)Nc2cc(C(F)(F)F)c(Cl)cn2)s1`: the viability, T/C is 106% [middle of 4 runs] (compound 0.0316 µM); 103% (2×) and 98.6% and 92.7% (compound 0.1 µM); 98.6% [middle of 4 runs] (compound 0.316 µM); 95.3% [middle of 4 runs] (compound 1 µM); 97.7% [middle of 4 runs] (compound 3.16 µM); 108% [middle of 4 runs] (compound 10 µM). Besides, the IC50 (curve of compound) is over 10 µM.
In the case of `Cc1nc(N2CCC3(CC2)COC(C)C3N)c(CO)nc1Sc1ccnc(N)c1Cl` (configuration not stated), the viability, T/C is 110% [middle of 4 runs] (compound 0.0316 µM); 99% [middle of 4 runs] (compound 0.1 µM); 107% [middle of 4 runs] (compound 0.316 µM); 100% [middle of 4 runs] (compound 1 µM); 105% [middle of 4 runs] (compound 3.16 µM); 103% [middle of 4 runs] (compound 10 µM). Also, the IC50 (curve of compound) is over 10 µM.
For `NC1c2ccccc2OC12CCN(c1cnc3c(N4CCCc5ncccc54)n[nH]c3n1)CC2` (configuration not stated), the viability, T/C (compound 0.0316 µM) is 104% [middle of 4 runs]; the viability, T/C (compound 0.1 µM) was 99.1% [middle of 4 runs]; the viability, T/C (compound 0.316 µM) was 104% [middle of 4 runs]; the viability, T/C (compound 1 µM) was 102% [middle of 4 runs]; the viability, T/C (compound 3.16 µM) is 101% [middle of 4 runs]; the viability, T/C (compound 10 µM) was 69.9% [middle of 4 runs]. For the same compound, the IC50 (curve of compound) was over 10 µM.
